The source made the active and inactive calls. The rule behind the calls is not given here.
How the values were obtained:
Type in all cases: cell-based
[1] = biological target: Cyclin-dependent kinase 12/13 (Homo sapiens) (UniProt Q14004+Q9NYV4); experiment: Inhibition of biotinylated-THZ1 binding to CDK12/CDK13 in human Jurkat cells assessed as reduction in cyclin K pull down at 1 uM preincubated for 6 hrs followed by biotinylated-THZ1 addition by Western blotting based pull-down assay
[2] = biological target: Cyclin-dependent kinase 12 (Homo sapiens) (UniProt Q9NYV4); experiment: Inhibition of biotinylated-THZ1 binding to CDK12 in human Jurkat cells assessed as reduction in cyclin K pull down at 1 uM preincubated for 6 hrs followed by biotinylated-THZ1 addition by Western blotting based pull-down assay
Cyclin-dependent kinase 12 (Homo sapiens), sequence (Q9NYV4 whole entry, looked up): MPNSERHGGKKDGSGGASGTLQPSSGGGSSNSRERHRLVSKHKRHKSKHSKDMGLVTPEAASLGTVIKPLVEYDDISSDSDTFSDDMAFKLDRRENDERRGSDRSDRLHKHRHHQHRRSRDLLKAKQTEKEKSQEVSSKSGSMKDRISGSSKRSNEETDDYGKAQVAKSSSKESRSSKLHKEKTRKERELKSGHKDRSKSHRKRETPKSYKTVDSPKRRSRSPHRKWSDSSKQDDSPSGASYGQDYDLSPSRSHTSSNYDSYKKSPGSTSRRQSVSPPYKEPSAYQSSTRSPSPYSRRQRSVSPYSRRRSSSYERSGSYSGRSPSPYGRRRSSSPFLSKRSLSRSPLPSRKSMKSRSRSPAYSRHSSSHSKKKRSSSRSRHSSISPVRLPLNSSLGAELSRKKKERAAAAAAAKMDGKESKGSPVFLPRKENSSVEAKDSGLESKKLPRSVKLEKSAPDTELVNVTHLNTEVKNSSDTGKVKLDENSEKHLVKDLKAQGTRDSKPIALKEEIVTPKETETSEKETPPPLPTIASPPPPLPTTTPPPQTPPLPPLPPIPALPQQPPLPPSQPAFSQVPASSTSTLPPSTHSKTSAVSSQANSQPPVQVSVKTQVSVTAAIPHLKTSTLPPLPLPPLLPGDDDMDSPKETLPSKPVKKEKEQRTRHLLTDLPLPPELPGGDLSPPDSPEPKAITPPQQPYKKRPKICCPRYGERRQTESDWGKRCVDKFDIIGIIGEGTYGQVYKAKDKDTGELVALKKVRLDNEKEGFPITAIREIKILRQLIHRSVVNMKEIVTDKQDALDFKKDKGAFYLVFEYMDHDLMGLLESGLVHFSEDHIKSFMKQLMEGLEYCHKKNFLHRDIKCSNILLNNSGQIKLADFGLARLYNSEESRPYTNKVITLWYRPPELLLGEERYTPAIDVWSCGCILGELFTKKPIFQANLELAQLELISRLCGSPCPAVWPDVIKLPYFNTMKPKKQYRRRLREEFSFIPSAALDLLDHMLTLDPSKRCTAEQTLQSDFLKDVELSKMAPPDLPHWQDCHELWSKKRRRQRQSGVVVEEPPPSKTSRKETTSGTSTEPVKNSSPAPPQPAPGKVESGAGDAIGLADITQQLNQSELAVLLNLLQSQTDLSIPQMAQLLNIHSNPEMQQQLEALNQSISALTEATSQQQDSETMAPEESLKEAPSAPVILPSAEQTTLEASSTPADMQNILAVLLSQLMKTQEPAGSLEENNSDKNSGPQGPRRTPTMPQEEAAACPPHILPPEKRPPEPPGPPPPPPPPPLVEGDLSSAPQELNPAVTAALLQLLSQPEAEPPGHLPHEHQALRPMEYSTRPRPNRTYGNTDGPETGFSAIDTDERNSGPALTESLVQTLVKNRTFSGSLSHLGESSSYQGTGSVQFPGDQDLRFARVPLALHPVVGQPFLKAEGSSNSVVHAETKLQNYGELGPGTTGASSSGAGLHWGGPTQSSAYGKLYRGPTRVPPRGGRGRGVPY

[3] = biological target: Cyclin-dependent kinase 7 (Homo sapiens) (UniProt P50613); experiment: Inhibition of biotinylated-THZ1 binding to CDK7 in human Jurkat cells assessed as reduction in cyclin H pull down at 1 uM preincubated for 6 hrs followed by biotinylated-THZ1 addition by Western blotting based pull-down assay
Cyclin-dependent kinase 7 (Homo sapiens), sequence (P50613 whole entry): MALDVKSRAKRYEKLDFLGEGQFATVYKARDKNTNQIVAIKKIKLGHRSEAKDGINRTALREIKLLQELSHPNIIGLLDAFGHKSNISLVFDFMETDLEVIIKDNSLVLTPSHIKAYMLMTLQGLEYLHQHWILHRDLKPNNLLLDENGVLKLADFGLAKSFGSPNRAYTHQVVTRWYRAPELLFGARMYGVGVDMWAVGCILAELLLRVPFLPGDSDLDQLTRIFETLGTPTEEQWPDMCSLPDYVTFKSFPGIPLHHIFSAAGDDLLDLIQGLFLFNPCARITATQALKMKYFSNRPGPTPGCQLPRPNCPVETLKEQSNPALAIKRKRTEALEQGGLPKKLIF

Structure (SMILES)	inhibition [1]	inhibition [2]	inhibition [3]
CN(C)C/C=C/C(=O)Nc1ccc(C(=O)N2CCC[C@@H](Nc3ncc(Cl)c(-c4c[nH]c5ccccc45)n3)C2)nc1		inactive	
C=CC(=O)Nc1ccc(N2CCC[C@@H](Nc3ncc(Cl)c(-c4c[nH]c5ccccc45)n3)C2)nc1		inactive	
CN(C)C/C=C/C(=O)Nc1ccc(N2CCC[C@@H](Nc3ncc(Cl)c(-c4c[nH]c5ccccc45)n3)C2)nc1		inactive	inactive
CN(C)C/C=C/C(=O)Nc1ccc(C(=O)Nc2cccc(Nc3ncc(Cl)c(-c4c[nH]c5ccccc45)n3)c2)cc1	Active		Active

Continued, values first:

inhibition [1]	inhibition [2]	inhibition [3]	Structure (SMILES)
Active	inactive	inactive	CN(C)C/C=C/C(=O)Nc1ccc(O[C@@H]2CCC[C@@H](Nc3ncc(Cl)c(-c4c[nH]c5ccccc45)n3)C2)cc1
	inactive	inactive	C=CC(=O)Nc1ccc(N2CCC[C@@H](Nc3ncc(Cl)c(-c4c[nH]c5ccccc45)n3)C2)cc1
	inactive		C=CC(=O)Nc1ccc(O[C@@H]2CCC[C@@H](Nc3ncc(Cl)c(-c4c[nH]c5ccccc45)n3)C2)cc1

Reference: ChEMBL document CHEMBL4739714, “Inhibitors of cyclin-dependent kinase 12 (cdk12) and uses thereof” (2020)
